Measured values from US20240148821A1, “PHARMACEUTICAL USE OF CYCLIC PEPTIDE COMPOUND” (CHUGAI SEIYAKU KABUSHIKI KAISHA, priority 2021, published 2024).
Numbered stars: 1 amine (or outer) side, 2 acyl side, 3 side chain; on linkers, the order of the positions; unused ones are H or OH. Bridge positions count the residues as written; N and C are the ends. Square brackets hold non-standard residues; d marks the D form. Peptide text beside a SMILES is read from it. * marks the point of attachment. hPhe(3-Cl-4-CF3) = N[C@@H](CCc1ccc(C(F)(F)F)c(Cl)c1)C(=O)O; hPhe(3-F,4-CF3) = N[C@@H](CCc1ccc(C(F)(F)F)c(F)c1)C(=O)O; NEtPhe(2-Cl) = CCN[C@@H](Cc1ccccc1Cl)C(=O)O; NMePhe(4-Me) = CN[C@@H](Cc1ccc(C)cc1)C(=O)O; NMedβ3hAla = C[C@H](CC(=O)[*:2])N(C)[*:1]; X38 = CN1CCN(CCN(CC(=O)[*:2])[*:1])CC1; mXylylene = c1cc(C[*:1])cc(C[*:2])c1; NMeGly(cBu) = CN[C@H](C(=O)O)C1CCC1; NMeCha = CN[C@@H](CC1CCCCC1)C(=O)O; cisHyp = O=C(O)[C@@H]1C[C@H](O)CN1; NMeCba = CN[C@@H](CC1CCC1)C(=O)O; NMeChg = CN[C@H](C(=O)O)C1CCCCC1; NMeI = CC[C@H](C)[C@H](NC)C(=O)O; NMeD = CN[C@@H](CC(=O)O)C(=O)O; NMeL = CN[C@@H](CC(C)C)C(=O)O; NMehSer = CN[C@@H](CCO)C(=O)O; NMeV = CN[C@H](C(=O)O)C(C)C; NPhGly = O=C(O)CNc1ccccc1; Morpholide = C1CN(*)CCO1; NMeA = CN[C@@H](C)C(=O)O; NMeAib = CNC(C)(C)C(=O)O; Piperidide = C1CCN(*)CC1; Ac5c = NC1(C(=O)O)CCCC1; Aze = O=C(O)[C@@H]1CCN1; Sar = CNCC(=O)O

These compounds were tested against protein-protein interaction between Kras and SOS1 (biotin-tagged human Kras loaded with GDP, His-tagged human SOS1) (Homo sapiens (Human), UniProt P01116, G12D) (assay: Protein-protein interaction inhibition between Kras and SOS1 (KrasG12D-SOS PPI) using AlphaScreen). Conditions: AlphaScreen; biotin-tagged human Kras loaded with GDP, His-tagged human SOS1; read-out: KRAS G12D-SOS PPI IC50.
Type: biochemical
In the case of `CC[C@H](C)[C@@H]1NC(=O)[C@H](CC(C)C)N(C)C(=O)C[C@@H](C(=O)N2CCCCC2)N(C)C(=O)[C@H](CC(C)C)N(C)C(=O)C2(CCCC2)NC(=O)[C@@H]2C[C@H](OCc3cccc(C)c3)CN2C(=O)[C@H](CCc2ccc(C(F)(F)F)c(F)c2)NC(=O)CN(C)C(=O)[C@H](CC2CCCCC2)N(C)C(=O)CN(C)C(=O)CN(C)C1=O` [Compound 2141] ([NMeL]I[Sar][Sar][NMeCha][Sar][hPhe(3-F,4-CF3)][cisHyp](mXylylene)[Ac5c][NMeL][NMeD]-Piperidide; lactam N-11), the IC50 is reported as 72 nM.
In the case of `CC[C@H](C)[C@@H]1NC(=O)[C@H](C)N(C)C(=O)C[C@@H](C)N(C)C(=O)[C@H](C2CCC2)N(C)C(=O)C(C)(C)N(C)C(=O)CN(c2ccccc2)C(=O)[C@H](CCc2ccc(C(F)(F)F)c(Cl)c2)NC(=O)CN(C)C(=O)[C@H](C2CCC2)N(C)C(=O)[C@@H]2CCN2C(=O)[C@H](C)N(C)C1=O` [Compound 2148] (cyclo([Aze][NMeGly(cBu)][Sar][hPhe(3-Cl-4-CF3)][NPhGly][NMeAib][NMeGly(cBu)][NMedβ3hAla][NMeA]I[NMeA])), the IC50 is reported as 63 nM.
Work on `CC[C@H](C)[C@@H]1NC(=O)[C@H](C)N(C)C(=O)C[C@@H](C)N(C)C(=O)[C@H](CC2CCC2)N(C)C(=O)C(C)(C)N(C)C(=O)[C@@H]2CCCN2C(=O)[C@H](CCc2ccc(C(F)(F)F)c(Cl)c2)NC(=O)CN(C)C(=O)[C@H](CC2CCCCC2)N(C)C(=O)[C@@H]2CCN2C(=O)[C@H](C)N(C)C1=O` [Compound 2152] (cyclo([Aze][NMeCha][Sar][hPhe(3-Cl-4-CF3)]P[NMeAib][NMeCba][NMedβ3hAla][NMeA]I[NMeA])) yielded an IC50 of 71 nM.
`CC[C@H](C)[C@@H]1NC(=O)[C@H](C)N(C)C(=O)C[C@@H](C)N(C)C(=O)[C@H](C2CCCCC2)N(C)C(=O)C(C)(C)N(C)C(=O)[C@@H]2CCCN2C(=O)[C@H](CCc2ccc(C(F)(F)F)c(Cl)c2)NC(=O)CN(C)C(=O)[C@H](CC2CCCCC2)N(C)C(=O)[C@@H]2CCN2C(=O)[C@H](C)N(C)C1=O` [Compound 2155] (cyclo([Aze][NMeCha][Sar][hPhe(3-Cl-4-CF3)]P[NMeAib][NMeChg][NMedβ3hAla][NMeA]I[NMeA])) was tested, and the IC50 was 28 nM.
`CC[C@H](C)[C@@H]1NC(=O)[C@H](C)N(C)C(=O)C[C@@H](C)N(C)C(=O)[C@H](C2CCC2)N(C)C(=O)C(C)(C)N(C)C(=O)[C@@H]2CCCN2C(=O)[C@H](CCc2ccc(C(F)(F)F)c(Cl)c2)NC(=O)CN(C)C(=O)[C@H](CC2CCCCC2)N(C)C(=O)[C@@H]2CCN2C(=O)[C@H](C)N(C)C1=O` [Compound 2157] (cyclo([Aze][NMeCha][Sar][hPhe(3-Cl-4-CF3)]P[NMeAib][NMeGly(cBu)][NMedβ3hAla][NMeA]I[NMeA])) showed an IC50 of 6.9 nM.
With `CC[C@H](C)[C@@H]1NC(=O)[C@H]([C@@H](C)CC)N(C)C(=O)C[C@@H](C)N(C)C(=O)[C@H](C(C)C)N(C)C(=O)C(C)(C)N(C)C(=O)[C@@H]2CCCN2C(=O)[C@H](CCc2ccc(C(F)(F)F)c(Cl)c2)NC(=O)CN(C)C(=O)[C@H](CC2CCCCC2)N(C)C(=O)[C@@H]2CCN2C(=O)[C@H](C)N(C)C1=O` [Compound 2159, (5S,8S,11S,15R,18S,23aS,29S,35S,37aS)-8,11-di((S)-sec-butyl)-29-(3-chloro-4-(trifluoromethyl)phenethyl)-35-(cylohexylmethyl)-18-isopropyl-5,6,12,15,16,19,21,21,22,33,36-undecamethyltetracosahydro-2H-azeto[2,1-u]pyrrolo[2,1-i] [1,4,7,10,13,16,19,22,25,28,31]undecaazacyclotetratriacontyne-4,7,10,13,17,20,23,28,31,34,37(14H)-undecone] (cyclo([Aze][NMeCha][Sar][hPhe(3-Cl-4-CF3)]P[NMeAib][NMeV][NMedβ3hAla][NMeI]I[NMeA])) the IC50 was 3.5 nM.
Compound `CC[C@H](C)[C@@H]1NC(=O)[C@H](C)N(C)C(=O)C[C@@H](C(=O)N2CCCCC2)N(C)C(=O)[C@H](C(C)C)N(C)C(=O)C2(CCCC2)NC(=O)[C@H](Cc2ccccc2Cl)N(CC)C(=O)[C@H](CCc2ccc(C(F)(F)F)c(Cl)c2)NC(=O)CN(C)C(=O)[C@H](CC2CCCCC2)N(C)C(=O)CN(C)C(=O)CN(C)C1=O` [Compound 2161, (8S,11S,17S,26S,29S,33S,36S)-8-[(2-chlorophenyl)methyl]-11-[2-[3-chloro-4-(trifluoromethyl)phenyl]ethyl]-17-(cyclohexylmethyl)-9-ethyl-36-isopropyl-15,18,21,24,29,30,34,37-octamethyl-26-[(1S)-1-methylpropyl]-33-(piperidine-1-carbonyl)-6,9,12,15,18,21,24,27,30,34,37-undecazaspiro[4.33]octatriacontane-7,10,13,16,19,22,25,28,31,35,38-undecone] ([NMeA]I[Sar][Sar][NMeCha][Sar][hPhe(3-Cl-4-CF3)][NEtPhe(2-Cl)][Ac5c][NMeV][NMeD]-Piperidide; lactam N-11) has an IC50 of 480 nM.
`CC[C@H](C)[C@@H]1NC(=O)[C@H](C)N(C)C(=O)C[C@@H](C(=O)N(C)C)N(C)C(=O)[C@H]([C@@H](C)CC)N(C)C(=O)C2(CCCC2)NC(=O)[C@H](Cc2ccccc2Cl)N(CC)C(=O)[C@H](CCc2ccc(C(F)(F)F)c(Cl)c2)NC(=O)CN(C)C(=O)[C@H](Cc2ccc(C)cc2)N(C)C(=O)[C@@H]2CCN2C(=O)[C@H](C)N(C)C1=O` [Compound 2163] ([NMeA]I[NMeA][Aze][NMePhe(4-Me)][Sar][hPhe(3-Cl-4-CF3)][NEtPhe(2-Cl)][Ac5c][NMeI][NMeD]-NMe2; lactam N-11) showed an IC50 of 73 nM.
For `CC[C@H](C)[C@@H]1NC(=O)[C@H](C)N(C)C(=O)C[C@@H](C(=O)N(C)C)N(C)C(=O)[C@H](C(C)C)N(C)C(=O)C2(CCCC2)NC(=O)[C@H](Cc2ccccc2Cl)N(CC)C(=O)[C@H](CCc2ccc(C(F)(F)F)c(Cl)c2)NC(=O)CN(C)C(=O)[C@H](CC2CCCCC2)N(C)C(=O)CN(C)C(=O)CN(C)C1=O` [Compound 2164] ([NMeA]I[Sar][Sar][NMeCha][Sar][hPhe(3-Cl-4-CF3)][NEtPhe(2-Cl)][Ac5c][NMeV][NMeD]-NMe2; lactam N-11), the IC50 was 300 nM.
`CC[C@H](C)[C@@H]1NC(=O)[C@H](CC(C)C)N(C)C(=O)C[C@@H](C(=O)N(C)C)N(C)C(=O)[C@H]([C@@H](C)CC)N(C)C(=O)C2(CCCC2)NC(=O)[C@H](Cc2ccccc2Cl)N(CC)C(=O)[C@H](CCc2ccc(C(F)(F)F)c(Cl)c2)NC(=O)CN(C)C(=O)[C@H](Cc2ccc(C)cc2)N(C)C(=O)[C@@H]2CCN2C(=O)[C@H](C)N(C)C1=O` [Compound 2165] ([NMeL]I[NMeA][Aze][NMePhe(4-Me)][Sar][hPhe(3-Cl-4-CF3)][NEtPhe(2-Cl)][Ac5c][NMeI][NMeD]-NMe2; lactam N-11) was tested, and the IC50 was 220 nM.
`CC[C@H](C)[C@@H]1NC(=O)[C@H](C)N(C)C(=O)C[C@@H](C(=O)N2CCCCC2)N(C)C(=O)[C@H](C(C)C)N(C)C(=O)C2(CCCC2)NC(=O)[C@H](Cc2ccccc2Cl)N(CC)C(=O)[C@H](CCc2ccc(C(F)(F)F)c(Cl)c2)NC(=O)CN(C)C(=O)[C@H](Cc2ccc(C)cc2)N(C)C(=O)CN(C)C(=O)CN(C)C1=O` [Compound 2166] ([NMeA]I[Sar][Sar][NMePhe(4-Me)][Sar][hPhe(3-Cl-4-CF3)][NEtPhe(2-Cl)][Ac5c][NMeV][NMeD]-Piperidide; lactam N-11) showed an IC50 of 330 nM.
`CC[C@H](C)[C@@H]1NC(=O)[C@H](C)N(C)C(=O)C[C@@H](C(=O)N2CCOCC2)N(C)C(=O)[C@H](C(C)C)N(C)C(=O)C2(CCCC2)NC(=O)[C@H](Cc2ccccc2Cl)N(CC)C(=O)[C@H](CCc2ccc(C(F)(F)F)c(Cl)c2)NC(=O)CN(C)C(=O)[C@H](CC2CCCCC2)N(C)C(=O)CN(C)C(=O)CN(C)C1=O` [Compound 2167] ([NMeA]I[Sar][Sar][NMeCha][Sar][hPhe(3-Cl-4-CF3)][NEtPhe(2-Cl)][Ac5c][NMeV][NMeD]-Morpholide; lactam N-11) gave an IC50 of 380 nM.
`CC[C@H](C)[C@@H]1NC(=O)[C@H](CC(C)C)N(C)C(=O)C[C@@H](C(=O)N2CCCCC2)N(C)C(=O)[C@H](C2CCCCC2)N(C)C(=O)C2(CCCC2)NC(=O)[C@H](CCOC)N(C)C(=O)[C@H](CCc2ccc(C(F)(F)F)c(Cl)c2)NC(=O)CN(C)C(=O)[C@H](CC2CCCCC2)N(C)C(=O)CN(C)C(=O)CN(C)C1=O` [Compound 2168] ([NMeL]I[Sar][Sar][NMeCha][Sar][hPhe(3-Cl-4-CF3)][NMehSer](Me)[Ac5c][NMeChg][NMeD]-Piperidide; lactam N-11) showed an IC50 of 1.3 nM.
`CC[C@H](C)[C@@H]1NC(=O)[C@H](CC(C)C)N(C)C(=O)C[C@@H](C(=O)N2CCCCC2)N(C)C(=O)[C@H](C2CCCCC2)N(C)C(=O)C2(CCCC2)NC(=O)CN(CCN2CCN(C)CC2)C(=O)[C@H](CCc2ccc(C(F)(F)F)c(Cl)c2)NC(=O)CN(C)C(=O)[C@H](CC2CCCCC2)N(C)C(=O)CN(C)C(=O)CN(C)C1=O` [Compound 2180, (11S,17S,26S,29S,33S,36S)-11-[2-[3-chloro-4-(trifluoromethyl)phenyl]ethyl]-36-cyclohexyl-17-(cyclohexylmethyl)-29-isobutyl-15,18,21,24,30,34,37-heptamethyl-9-[2-(4-methylpiperazin-1-yl)ethyl]-26-[(1S)-1-methylpropyl]-33-(piperidine-1-carbonyl)-6,9,12,15,18,21,24,27,30,34,37-undecazaspiro[4.33]octatriacontane-7,10,13,16,19,22,25,28,31,35,38-undecone] ([NMeL]I[Sar][Sar][NMeCha][Sar][hPhe(3-Cl-4-CF3)][X38][Ac5c][NMeChg][NMeD]-Piperidide; lactam N-11) gave an IC50 of 0.93 nM.
